Where two headings read alike, the source gives them in different places.
How the values were obtained:
AspergiLLus niger [1] = system: AspergiLLus niger
Description: (§1) The first chamber 5a and the second chamber 6a have size of 1000 mm width, and 1500 mm length, and 200 mm height, respectively. Preforms, each being formed into a bottle of 500 ml, were supplied to the conveyer by the number of 860 bottles/min., and the conveyer was driven at a predetermined speed.
(§2) In the above Table 4, term “B” is an abbreviated term of “BaciLLus subtiLis”, and “A.nig.” is an abbreviated term of “AspergiLLus niger”. “D” is a D-valve indicating the sterilization effect.

BaciLLus subtiLis [2] = system: BaciLLus subtiLis
Description: as §1, §2

BaciLLus subtiLis [3] = conditions: 35% hydrogen peroxide water mist mixed with 60° C. hot air, about 50 mg per preform
Description: (§3) Mist of hydrogen peroxide water was produced by supplying hydrogen peroxide water of 35% concentration and pressurized air to a two-fluid spray, the thus produced mist was mixed with hot air having temperature of 60° C., and then, the mist of the hydrogen peroxide water was sprayed inside a chamber through a nozzle. The chamber is a box-shaped member, having no bottom, having a size of 1,000 mm width, 1,500 mm length and 200 mm height, and the box-shaped chamber was set to a predetermined position on the conveyer having 600 mm width. Preforms of the number of 860 bottles/min., each being formed into a bottle of […], were supplied to the conveyer, which is driven at a speed of 0.2/sec.

[4] = preform molded into a bottle and filled with water
Description: as §3

AspergiLLus niger [5] = conditions: then superheated steam 300° C. 5 sec. to inner surface
Description: (§4) Mist of hydrogen peroxide water was produced by supplying hydrogen peroxide water of 35% concentration and pressurized air to a two-fluid spray, the thus produced mist was mixed with hot air having temperature of 60° C., and then, the mist of the hydrogen peroxide water was sprayed inside a chamber through a nozzle. The chamber has a size of 600 mm width, and a conveyer has 1.5 m length. Preforms, each being formed into a bottle of […], were supplied to the conveyer by the number of 860 bottles/min., and the conveyer was driven at a speed of 0.2/sec. […] Furthermore, preforms, each being formed into a bottle of […], were supplied by the number of 250 bottles/min., and the same operation was performed. […] Such preforms were subjected to the following treatment.
(§5) Superheated steam of flow amount of 0.7 g/sec. generated by heating water by a superheated steam generator of induction heating system was sprayed to each inner surface of the preform from a nozzle having inner diameter of 8 mm at blasting temperature of 300° C. for 5 sec.
(§6) In the above Table 1, term “B” is an abbreviated term of “BaciLLus subtiLis”, and “A.nig.” is an abbreviated term of “AspergiLLus niger”. “D” is a D-valve indicating the sterilizing effect.

BaciLLus subtiLis [6] = conditions: then superheated steam 300° C. 5 sec. to inner surface
Description: as §4, §5, §6

BaciLLus subtiLis [7] = system: BaciLLus subtiLis; remark: listed apart in the source
Description: The hydrogen peroxide water adhered to each preform having inner volume of 500 ml for bottle as in the first example 1. Furthermore, superheated steam of flow amount of 0.7 g/sec. generated by heating water by a superheated steam generator of an induction heating system was sprayed to the inner surface of each preform from a nozzle having inner diameter of 8 mm at blasting temperature in a range of 180 to 550° C. for 10 to 3 sec.
Further, it is to be noted that, in the above Table 3, the sterilization effect is shown with [∘] (good) in the case where the D-value with respect to BaciLLus subtiLis is not less than 6, and the other cases are shown with [x] (not good). With respect to the deformation of the inner diameter, in the case where the inner diameter of the preform is deformed by less than 0.05 mm is shown [∘] (good), and the other cases are shown with [x] (not good).

[8] = hydrogen peroxide 3%, hot air NO, superheated steam 400° C., 0.2 m/sec.
[9] = preform for 2 L, 35% mist about 150 mg
[10] = preform for 500 mL, 35% mist about 50 mg

OO [hydrogen peroxide]
sterilization effect A. niger (AspergiLLus niger [1]; [8]): 6.0D | sterilizing effect with respect to the A. niger (AspergiLLus niger [1]; superheated steam added with hydrogen peroxide, regardless of the preheating by hot air (summary of Table 4)): more than 6.0 D | sterilization effect B. sub. (BaciLLus subtiLis [2]; hydrogen peroxide 3%, hot air 100° C., superheated steam 200° C., 0.2 m/sec.): 5.3D | sterilization effect B. sub. (BaciLLus subtiLis [2]; hydrogen peroxide 3%, hot air 100° C., superheated steam 400° C., 0.2 m/sec.): 6.0D | sterilization effect B. sub. (BaciLLus subtiLis [2]; [8]): 4.0D | sterilization effect B. sub. (BaciLLus subtiLis [2]; hydrogen peroxide 10%, hot air 80° C., superheated steam 400° C., 0.2 m/sec.): 6.0D | sterilization effect B. sub. (BaciLLus subtiLis [2]; hydrogen peroxide 10%, hot air NO, superheated steam 400° C., 0.5 m/sec.): 5.5D | sterilizing effect with respect to the B.sub (BaciLLus subtiLis [2]; preheating performed and superheated steam added with hydrogen peroxide blasted (summary of Table 4)): more than 6.0 D | sterilizing power (BaciLLus subtiLis [3]; inner surface of the preform): 4.2 D | sterilizing power (BaciLLus subtiLis [3]; outer surface of the preform): 5.3 D | remaining amount of the hydrogen peroxide [4]: 0.012 ppm | sterilizing effect A. nig (AspergiLLus niger [5]; [9]): More than 6.0D | sterilizing effect A. nig (AspergiLLus niger [5]; [10]): More than 6.0D | sterilizing effect B. sub. (BaciLLus subtiLis [6]; [9]): 3.0D | sterilizing effect B. sub. (BaciLLus subtiLis [6]; [10]): 3.1D | Sterilizing Effect (BaciLLus subtiLis [7]; hydrogen peroxide water as in Example 1, then superheated steam 180° C., 10 sec.): X (the other cases are shown with [x] (not good)) | Sterilizing Effect (BaciLLus subtiLis [7]; hydrogen peroxide water as in Example 1, then superheated steam 250° C., 6 sec.): ◯ ([∘] (good) in the case where the D-value with respect to BaciLLus subtiLis is not less than 6) | Sterilizing Effect (BaciLLus subtiLis [7]; hydrogen peroxide water as in Example 1, then superheated steam 350° C., 4 sec.): ◯ ([∘] (good) in the case where the D-value with respect to BaciLLus subtiLis is not less than 6) | Sterilizing Effect (BaciLLus subtiLis [7]; hydrogen peroxide water as in Example 1, then superheated steam 450° C., 3 sec.): ◯ ([∘] (good) in the case where the D-value with respect to BaciLLus subtiLis is not less than 6) | Sterilizing Effect (BaciLLus subtiLis [7]; hydrogen peroxide water as in Example 1, then superheated steam 550° C., 3 sec.): ◯ ([∘] (good) in the case where the D-value with respect to BaciLLus subtiLis is not less than 6)
